Laboratory results: publication PMC9925730, “Controlled sequential in situ self-assembly and disassembly of a fluorogenic cisplatin prodrug for cancer theranostics” (Nature Communications, 2023)
Where “and” joins values, the source holds several entries; their conditions need not be identical. Equal values may be shown once. Read-outs that look alike come from different tables or passages of the source.

Assays:
ALP = experiment: Dephosphorylated efficacy of P-CyPt towards varying concentrations of ALP (NIR fluorescence); format: biochemical; settings: 250 μM
HEK-293T cells = experiment: Cytotoxicity, MTT assay; format: cell-based, human; parameters: key to cell viability, mean: % viability = OD / OD of untreated control
Method: (§1) HeLa cells were seeded on flat-bottomed 96-well plates (5000 cells per well) and incubated at 37 °C overnight. Varying concentrations of P-CyPt, Pt^IVNPs or CDDP (0, 1, 2, 5, 10, 20, 30, 50, 100, and 200 μM) in DMEM medium (100 μL) were added. Cells were either incubated for 48 h, or firstly incubated with these three compounds for 2 h, washed with PBS and then incubated with refreshed blank DMEM medium for another 48 h. Then, 3-(4,5)-dimethylthiahiazo (-z-y1)−3,5-di-phenytetrazoliumromide (MTT, 50 μL, 1 mg /mL in PBS) was added into each well. The cells were kept at 37 °C for 4 h, and the solution in each well was carefully removed, followed by addition of dimethyl sulfoxide (DMSO, 150 μL). The absorbance (OD) at 490 nm in each well was acquired on the microplate reader (Tcan). The absorbance of non-treated blank cells (OD control) was used as the control. The percentage of cell viability was calculated by dividing OD to the OD control. […]
(§2) Supplementary Table 4. The IC50 (μM) value of different Pt drugs toward HeLa, HepG2 and HEK-293T cells.a
(§3) Compounds Condition IC50 (μM) HeLa HepG2 HEK-293T […]
(§4) a The IC50 values were measured by the MTT assay. Values denote mean ± s.d. (n = 3 independent experiments). b Cells were incubated with varying concentrations of CDDP, P-CyPt or PtIVNPs for […]
(§5) c Cells were incubated with varying concentrations of CDDP, P-CyPt or PtIVNPs for 2 h, and the mediums were removed, washed with PBS. Blank culture mediums were added, and the cells were kept incubation for another 48 h.

HeLa cells [1] = experiment: Cytotoxicity, MTT assay; format: cell-based, human; parameters: key to cell viability, mean: % viability = OD / OD of untreated control
Method: as §1, §2, §3, §4, §5

HepG2 cells = experiment: Cytotoxicity, MTT assay; format: cell-based, human; parameters: key to cell viability, mean: % viability = OD / OD of untreated control
Method: as §1, §2, §3, §4, §5

HeLa cells [2] = experiment: NIR FL and PA bimodality imaging of cell pellets; format: cell-based, human; settings: for normalized FL of cell pellets (Fig. 3c): 30 min
[3] = HeLa, P-CyPt 10 μM 30 min then blank medium 3 h (Group II vs I)

CC1(C)C(/C=C/C2=C3Oc4cc(OP(=O)(O)O)c(Cl)cc4C=C3CCC2)=[N+](CCCNC(=O)[C@@H](Cc2ccccc2)NC(=O)[C@@H](Cc2ccccc2)NC(=O)CCC(=O)[O][Pt]([NH2])([NH2])([OH])([Cl])[Cl])c2ccccc21 [P-CyPt]
normalized signal over time (section 'Supplementary Fig. 2c'), mean of 3 (ALP; time 260 min): 0.996 | normalized signal over time (section 'Supplementary Fig. 2c'), mean of 3 (ALP; time 280 min): 0.9965 | normalized signal over time (section 'Supplementary Fig. 2c'), mean of 3 (ALP; time 320 min): 0.9972 | normalized signal over time (section 'Supplementary Fig. 2c'), mean of 3 (ALP; time 440 min): 0.9986 | IC50 (HEK-293T cells; HEK-293T, 2+48 h, individual samples, read-out: IC50-2+48h): > 200 µM | IC50 (HEK-293T cells; HEK-293T, 2+48 h, mean of 3 samples, read-out: IC50-2+48h): > 200 µM | IC50 (HEK-293T cells; HEK-293T, 48 h, individual samples, read-out: IC50-48h): 43.8 µM and 50.3 µM and 51.8 µM | cell viability, mean (HEK-293T cells; Supplementary Fig. 23 (c), concentration 1 μM): 98.4753 | cell viability, mean (HEK-293T cells; Supplementary Fig. 23 (c), concentration 2 μM): 94.8818 | cell viability, mean (HEK-293T cells; Supplementary Fig. 23 (c), concentration 5 μM): 91.0944 | cell viability, mean (HEK-293T cells; Supplementary Fig. 23 (c), concentration 10 μM): 84.8089 | cell viability, mean (HEK-293T cells; Supplementary Fig. 23 (c), concentration 20 μM): 73.4808 | cell viability, mean (HEK-293T cells; Supplementary Fig. 23 (c), concentration 30 μM): 62.5624 | cell viability, mean (HEK-293T cells; Supplementary Fig. 23 (c), concentration 50 μM): 47.5251 | cell viability, mean (HEK-293T cells; Supplementary Fig. 23 (c), concentration 100 μM): 31.456 | cell viability, mean (HEK-293T cells; Supplementary Fig. 23 (c), concentration 200 μM): 17.421 | cell viability, mean (HEK-293T cells; Supplementary Fig. 24 (c), concentration 1 μM): 97.0705 | cell viability, mean (HEK-293T cells; Supplementary Fig. 24 (c), concentration 2 μM): 99.2124 | cell viability, mean (HEK-293T cells; Supplementary Fig. 24 (c), concentration 5 μM): 98.6059 | cell viability, mean (HEK-293T cells; Supplementary Fig. 24 (c), concentration 10 μM): 96.2404 | cell viability, mean (HEK-293T cells; Supplementary Fig. 24 (c), concentration 20 μM): 97.2347 | cell viability, mean (HEK-293T cells; Supplementary Fig. 24 (c), concentration 30 μM): 96.0142 | cell viability, mean (HEK-293T cells; Supplementary Fig. 24 (c), concentration 50 μM): 92.8073 | cell viability, mean (HEK-293T cells; Supplementary Fig. 24 (c), concentration 100 μM): 92.5552 | cell viability, mean (HEK-293T cells; Supplementary Fig. 24 (c), concentration 200 μM): 88.5457 | IC50 (HEK-293T cells; Supplementary Fig. 24 (c), read-out: IC50): > 200 µM | IC50 (HEK-293T cells; incubated 2 h, then blank medium 48 h, MTT, read-out: IC50 HEK-293T): > 200 µM | IC50 (HEK-293T cells; incubated 48 h, MTT, read-out: IC50 HEK-293T): 48.6 ± 4.24 µM | IC50 (HeLa cells [1]; HeLa, 2+48 h, individual samples, read-out: IC50-2+48h): 14.2 µM and 15.9 µM and 13.5 µM | IC50 (HeLa cells [1]; HeLa, 2+48 h, mean of 3 samples, read-out: IC50-2+48h): 14.6 µM | IC50 (HeLa cells [1]; HeLa, 48 h, individual samples, read-out: IC50-48h): 5.97 µM and 7.11 µM and 7.21 µM | cell viability, mean (HeLa cells [1]; Supplementary Fig. 23 (a), concentration 1 μM): 92.8903 | cell viability, mean (HeLa cells [1]; Supplementary Fig. 23 (a), concentration 2 μM): 79.6162 | cell viability, mean (HeLa cells [1]; Supplementary Fig. 23 (a), concentration 5 μM): 58.6671 | cell viability, mean (HeLa cells [1]; Supplementary Fig. 23 (a), concentration 10 μM): 35.0547 | cell viability, mean (HeLa cells [1]; Supplementary Fig. 23 (a), concentration 20 μM): 22.3775 | cell viability, mean (HeLa cells [1]; Supplementary Fig. 23 (a), concentration 30 μM): 18.41 | cell viability, mean (HeLa cells [1]; Supplementary Fig. 23 (a), concentration 50 μM): 13.1166 | cell viability, mean (HeLa cells [1]; Supplementary Fig. 23 (a), concentration 100 μM): 9.42 | cell viability, mean (HeLa cells [1]; Supplementary Fig. 23 (a), concentration 200 μM): 5.73 | IC50 (HeLa cells [1]; Supplementary Fig. 23 (a), read-out: IC50): 6.76 µM | cell viability, mean (HeLa cells [1]; Supplementary Fig. 24 (a), concentration 1 μM): 94.9375 | cell viability, mean (HeLa cells [1]; Supplementary Fig. 24 (a), concentration 2 μM): 87.7526 | cell viability, mean (HeLa cells [1]; Supplementary Fig. 24 (a), concentration 5 μM): 73.6215 | cell viability, mean (HeLa cells [1]; Supplementary Fig. 24 (a), concentration 10 μM): 60.3727 | cell viability, mean (HeLa cells [1]; Supplementary Fig. 24 (a), concentration 20 μM): 43.1523 | cell viability, mean (HeLa cells [1]; Supplementary Fig. 24 (a), concentration 30 μM): 31.9252 | cell viability, mean (HeLa cells [1]; Supplementary Fig. 24 (a), concentration 50 μM): 21.7758 | cell viability, mean (HeLa cells [1]; Supplementary Fig. 24 (a), concentration 100 μM): 11.35 | cell viability, mean (HeLa cells [1]; Supplementary Fig. 24 (a), concentration 200 μM): 7.117 | IC50 (HeLa cells [1]; incubated 2 h, then blank medium 48 h, MTT, read-out: IC50 HeLa): 14.6 ± 1.24 µM | IC50 (HeLa cells [1]; incubated 48 h, MTT, read-out: IC50 HeLa): 6.76 ± 0.68 µM | IC50 (HepG2 cells; HepG-2, 2+48 h, individual samples, read-out: IC50-2+48h): 20.2 µM and 17.1 µM (2×) | IC50 (HepG2 cells; HepG-2, 2+48 h, mean of 3 samples, read-out: IC50-2+48h): 18.1 µM | IC50 (HepG2 cells; HepG-2, 48 h, individual samples, read-out: IC50-48h): 9.3 µM and 10.5 µM and 11 µM | cell viability, mean (HepG2 cells; Supplementary Fig. 23 (b), concentration 1 μM): 92.0846 | cell viability, mean (HepG2 cells; Supplementary Fig. 23 (b), concentration 2 μM): 82.2394 | cell viability, mean (HepG2 cells; Supplementary Fig. 23 (b), concentration 5 μM): 69.0701 | cell viability, mean (HepG2 cells; Supplementary Fig. 23 (b), concentration 10 μM): 51.1783 | cell viability, mean (HepG2 cells; Supplementary Fig. 23 (b), concentration 20 μM): 33.5308 | cell viability, mean (HepG2 cells; Supplementary Fig. 23 (b), concentration 30 μM): 23.4253 | cell viability, mean (HepG2 cells; Supplementary Fig. 23 (b), concentration 50 μM): 15.7997 | cell viability, mean (HepG2 cells; Supplementary Fig. 23 (b), concentration 100 μM): 10.0234 | cell viability, mean (HepG2 cells; Supplementary Fig. 23 (b), concentration 200 μM): 7.08 | IC50 (HepG2 cells; Supplementary Fig. 23 (b), read-out: IC50): 10.3 µM | cell viability, mean (HepG2 cells; Supplementary Fig. 24 (b), concentration 1 μM): 95.0066 | cell viability, mean (HepG2 cells; Supplementary Fig. 24 (b), concentration 2 μM): 86.4416 | cell viability, mean (HepG2 cells; Supplementary Fig. 24 (b), concentration 5 μM): 75.7976 | cell viability, mean (HepG2 cells; Supplementary Fig. 24 (b), concentration 10 μM): 64.0113 | cell viability, mean (HepG2 cells; Supplementary Fig. 24 (b), concentration 20 μM): 47.6001 | cell viability, mean (HepG2 cells; Supplementary Fig. 24 (b), concentration 30 μM): 36.5665 | cell viability, mean (HepG2 cells; Supplementary Fig. 24 (b), concentration 50 μM): 27.7515 | cell viability, mean (HepG2 cells; Supplementary Fig. 24 (b), concentration 100 μM): 19.0319 | cell viability, mean (HepG2 cells; Supplementary Fig. 24 (b), concentration 200 μM): 12.1606 | IC50 (HepG2 cells; Supplementary Fig. 24 (b), read-out: IC50): 18.1 µM | IC50 (HepG2 cells; incubated 2 h, then blank medium 48 h, MTT, read-out: IC50 HepG2): 18.1 ± 1.78 µM | IC50 (HepG2 cells; incubated 48 h, MTT, read-out: IC50 HepG2): 10.3 ± 0.87 µM | normalized FL of cell pellets (Fig. 3c) (HeLa cells [2]; Group I: HeLa, P-CyPt 10 μM): 0.6736 | normalized FL of cell pellets (Fig. 3c) (HeLa cells [2]; Group II: HeLa, P-CyPt 10 μM, then blank medium 3 h): 1 | normalized FL of cell pellets (Fig. 3c) (HeLa cells [2]; Group III: HeLa preincubated with Na3VO4 (10 mM, 20 min), then P-CyPt 10 μM): 0.2415 | decrease of PA signal at 750 nm in cell pellets (HeLa cells [2]; [3]): ~ 3.5 fold | increase of NIR FL in cell pellets (HeLa cells [2]; [3]): ~ 1.5 fold
